Patent US4298739A, “Novel carbostyril derivatives” (priority 1977, dated 1981)

Assays:
rabbit platelet [1] = test: Collagen-induced aggregation in rabbit platelets (AG-II Aggregometer); type: cell-based; conditions: Oryctolagus cuniculus, Platelet, read-out: Inhibition effect on collagen induced aggregation in rabbit platelet; for inhibition at 100 µM (stock): 10^-4 mole; for inhibition at 10 µM (stock): 10^-5 mole; for inhibition at 1 µM (stock): 10^-6 mole
Protocol: (§1) The platelet aggregation inhibitory effect is measured by using AG-II Aggregometer (manufactured by Bryston Manufacturing Co.). The blood sample used for the test is a 1/9 (by volume) mixture of sodium citrate and whole blood collected from rabbit. Said sample is subjected to 10-minute centrifugal separation at 1,000 r.p.m. to obtain a platelet rich plasma (PRP). The thus obtained PRP is separated, and the remaining blood sample is further subjected to 15-minute centrifugal separation at 3,000 r.p.m. to obtain a platelet poor plasma (PPP).
(§2) The number of platelets in the PRP is counted by the Brecher-Clonkite Method, and the PRP is diluted with the PPP to prepare a PRP sample with platelet concentration of 300,000/mm^3 for the adenosine diphosphate (ADP)-induced aggregation test. There is also prepared a PRP sample with platelet concentration of 450,000/mm^3 for the collagen-induced aggregation test.
(§3) 0.6 ml of said PRP sample is added into 0.01 ml of a solution of a test compound of a predetermined concentration and the mixture is placed in a 37° C. thermostat for one minute. Then 0.07 ml of an ADP or collagen solution is added to the mixture. Transmittance of this mixture is determined and the change of transmittance is recorded by using the aggregometer at stirrer speed of 1,100 r.p.m. In this test, Auren Beronal buffer (pH 7.35) is used for the preparation of the ADP or collagen solution. ADP is adjusted to a concentration of 7.5×10^-5 M, and the collagen solution is prepared by triturating 100 mg of collagen with 5 ml of said buffer and the supernatant is used as collagen inducer. Adenosine and acetylsalicylic acid are used as controls for the ADP-induced aggregation test and the collagen-induced aggregation test, respectively. The platelet aggregation inhibitory effect is measured in terms of percent inhibition with respect to the aggregation rate of the controls. The aggregation rate is calculated from the following formula:
(§4) Aggregation rate=(c-a)/(b-a)×100
(§5) b: transmittance of PRP containing a test compound and an aggregation inducer
(§6) The inhibitory effect of the tested compounds on collagen-induced aggregation in rabbit platelets is shown in Table 1, and such effect on ADP-induced aggregation is shown in Table 2. The compounds tested are as follows.

[2] = Acute toxicity test, oral administration to mice; type: in vivo; conditions: mouse, in vivo, Male mice
Protocol: The test compounds were administered orally to the mice and LD50 (mg/kg) of the compounds was determined.

rabbit platelet [3] = test: ADP-induced aggregation in rabbit platelets (AG-II Aggregometer); type: cell-based; conditions: Oryctolagus cuniculus, Platelet, read-out: Inhibition effect on ADP-induced aggregation in rabbit platelet; for inhibition at 100 µM (stock): 10^-4 mole; for inhibition at 10 µM (stock): 10^-5 mole; for inhibition at 1 µM (stock): 10^-6 mole
Protocol: as §1, §2, §3, §4, §5, §6

Row | SMILES | inhibition at 100 µM (stock) (rabbit platelet [1]) | inhibition at 10 µM (stock) (rabbit platelet [1]) | inhibition at 1 µM (stock) (rabbit platelet [1]) | LD50 [2] | inhibition at 100 µM (stock) (rabbit platelet [3]) | inhibition at 10 µM (stock) (rabbit platelet [3]) | inhibition at 1 µM (stock) (rabbit platelet [3])
1 | CN(C(=O)CCCOc1ccc2c(c1)CCC(=O)N2)C1CCCCC1 [compound 15, 6-[3-(N-Methyl-N-cyclohexylaminocarbonyl)propoxy]-3,4-dihydrocarbostyril] | 94% | 92.6% | 34.1% | > 1000 mg/kg | 88.3% | 26.8% | 10.8%
2 | O=C(CCCOc1ccc2[nH]c(=O)ccc2c1)N(c1ccccc1)C1CCCCC1 [compound 17, 6-[3-(N-Cyclohexylanilinocarbonyl)propoxy]carbostyril] | 91.5% | 53.8% | 16.7% | > 1000 mg/kg | 82.5% | 38.7% | 12.3%
3 | O=C(CCCOc1ccc2c(c1)CCC(=O)N2)Nc1ccccc1 [compound 19, 6-[3-(Anilinocarbonyl)propoxy]-3,4-dihydrocarbostyril] | 93.8% | 17.4% |  | > 1000 mg/kg | 24.6% | 16.2% | 
4 | CCCCN(C(=O)CCCCOc1ccc2c(c1)CCC(=O)N2)C1CCCCC1 [compound 22, 6-[4-(N-Butyl-N-cyclohexylaminocarbonyl)buthoxy]-3,4-dihydrocarbostyril] | 85.6% | 78.5% | 28.7% | > 1000 mg/kg | 71.5% | 32.7% | 10.5%
5 | O=C1CCc2cc(OCCCC(=O)N(c3ccccc3)c3ccccc3)ccc2N1 [compound 24, 6-[3-(N,N-Diphenylaminocarbonyl)propoxy]-3,4-dihydrocarbostyril] | 82.7% | 43.5% | 15.5% | > 1000 mg/kg | 43.2% | 22.3% | 13.4%
6 | CC(C)(Oc1ccc2c(c1)CCC(=O)N2)C(=O)O [compound 38, 6-(1-Methyl-1-carboxyethoxy)-3,4-dihydrocarbostyril, reference compound] | 5% | 3% | 0% | 800 to 1000 mg/kg | 10% | 5% | 3%
7 | O=C(O)CCCOc1ccc2[nH]c(=O)ccc2c1 [compound 39, 6-(3-Carboxypropoxy)carbostyril, reference compound] | 28% | 15% | 0% | > 1000 mg/kg | 52% | 23% | 5%
8 | O=C1CCc2cc(OCCCC(=O)OC3CCCCC3)ccc2N1 [compound 40, 6-(3-Cyclohexyloxycarbonylpropoxy)-3,4-dihydrocarbostyril, reference compound] | 12% | 8% | 0% | 500 to 800 mg/kg | 28% | 16% | 7%
9 | CC(C)NC(=O)CCOc1cccc2c1CCC(=O)N2 [compound 41, 5-(N-Isopropylaminocarbonylethoxy)-3,4-dihydrocarbostyril, reference compound] | 17% |  | 0% | 500 to 800 mg/kg | 18% | 13% | 7%
10 | O=C1CCc2c(cccc2OCC(=O)N2CCOCC2)N1 [compound 42, 5-(Morpholinocarbonylmethoxy)-3,4-dihydrocarbostyril, reference compound] | 5% | 0% | 0% | 400 to 600 mg/kg | 13% | 6% | 0%
11 | CN(C)C(=O)COc1cccc2c1CCC(=O)N2 [compound 43, 5-(N,N-dimethylaminocarbonylmethoxy)-3,4-dihydrocarbostyril, reference compound] | 27% | 13% | 0% | 500 to 700 mg/kg | 22% | 17% | 8%
12 | CCN1C(=O)CCc2c(OCCCC(=O)NCc3ccccc3)cccc21 [compound 44, 1-Ethyl-5-[3-(N-benzylaminocarbonyl)propoxy]-3,4-dihydrocarbostyril, reference compound] | 7% | 0% | 0% | 500 to 600 mg/kg | 14% | 6% | 0%
13 | CCCNC(=O)CC(C)COc1ccc2c(c1)CCC(=O)N2 (stereo not shown) [compound 45, 6-[3-(N-Propylaminocarbonyl)-2-methylpropoxy]-3,4-dihydrocarbostyril, reference compound] | 12% | 5% | 0% | 500 to 800 mg/kg | 32% | 17% | 9%
